The text below walks through data of ChEMBL document CHEMBL1201862, “PubChem BioAssay data set” (2004).

Molecules are shown by their SMILES.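 Where inhibition never reached the appropriate level, the endpoint shown equals the highest concentration tested. Otherwise, values were interpolated linearly from a five-concentration, 48-hour dose response in 96-well plates. Here, GI50 denotes the concentration required for 50% inhibition of growth.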 Activity calls are given as the source filed them. No stated cut-off is given here; in the data, active = GI50 up to about 1.1 µM and inactive = higher.

Among the test systems are DU-145; HOP-92; UO-31; SK-MEL-28; KM12; Hs-578T; HCC 2998; BT-549; HT-29; NCI-H460; CCRF-CEM; NCI-H226; SR; PC-3; CAKI-1; UACC-257; A549; EKVX; OVCAR-3; RPMI-8226.
Assay in all cases: inhibition of tumour cell growth, NCI panel, 48 h

For the molecule `CCOc1ccc2c(c1)C(/C(C(Cl)=C(Cl)Cl)=[N+](/[O-])OC(=O)c1ccccc1)=N2`, the GI50 is 47.2 µM (inactive) in the assay with DU-145; 38.1 µM (inactive) in the assay on HOP-92; > 100 µM (inactive) in the assay with UO-31; > 100 µM (inactive) in the assay with SK-MEL-28; 35.9 µM (inactive) in the assay with KM12; 52.8 µM (inactive) in the assay with Hs-578T. Also, the GI50 was 59.2 µM (inactive) in the assay with HCC 2998; 25.4 µM (inactive) in the assay with BT-549; 61.2 µM (inactive) in the assay on HT-29; 76 µM (inactive) in the assay on NCI-H460; 36.9 µM (inactive) in the assay with CCRF-CEM; 37.3 µM (inactive) in the assay with NCI-H226. Further, the GI50 was 53.1 µM (inactive) in the assay with SR; 30.9 µM (inactive) in the assay on PC-3; 32.6 µM (inactive) with CAKI-1; 43.2 µM (inactive) in the assay with UACC-257; 47 µM (inactive) in the assay on A549; 15.4 µM (inactive) in the assay on EKVX. For the same molecule, the GI50 with OVCAR-3 is 30.8 µM (inactive).
For `Cc1ccc(/N=N/C(=N/NC(=O)c2ccccc2)c2ccc(N(CCC#N)CCC#N)cc2C)cc1`, the GI50 with DU-145 was 43.2 µM (inactive); with UO-31, > 100 µM (inactive); in the assay on KM12, 29.3 µM (inactive); in the assay on Hs-578T, 13 µM (inactive); with HCC 2998, 24.9 µM (inactive); in the assay on BT-549, 48.3 µM (inactive). The GI50 in the assay with HT-29 is 19 µM (inactive); in the assay with NCI-H460 it was 20.3 µM (inactive); in the assay with CCRF-CEM it was 30.3 µM (inactive); in the assay on NCI-H226 it was 44 µM (inactive); with SR it was 5.79 µM (inactive); with PC-3, 26.7 µM (inactive). For the same molecule, the GI50 is > 100 µM (inactive) in the assay with CAKI-1; > 100 µM (inactive) in the assay on RPMI-8226; 55 µM (inactive) with UACC-257; 34.3 µM (inactive) in the assay with A549; 63.4 µM (inactive) in the assay on EKVX; 12.5 µM (inactive) with OVCAR-3.
As for `Cc1c(-c2ccccc2)n(C)c2cn[nH]c(=O)c12`, the GI50 in the assay on DU-145 is 67.8 µM (inactive); in the assay on HOP-92, 81.1 µM (inactive); in the assay on UO-31 it was 44.1 µM (inactive); with SK-MEL-28, 47.3 µM (inactive); in the assay with KM12 it was 37.5 µM (inactive); with Hs-578T, 41.2 µM (inactive). Moreover, the GI50 is 27.8 µM (inactive) in the assay with HCC 2998; 32.3 µM (inactive) in the assay with BT-549; 26.1 µM (inactive) in the assay with HT-29; 63.8 µM (inactive) with NCI-H460; 40.2 µM (inactive) with CCRF-CEM; 27 µM (inactive) with SR. Moreover, the GI50 in the assay with PC-3 is 19.7 µM (inactive); with CAKI-1, 49.5 µM (inactive); in the assay on RPMI-8226, 38.1 µM (inactive); with UACC-257, 45.5 µM (inactive); in the assay with A549 it was 44.8 µM (inactive); with EKVX, 18.1 µM (inactive). For the same molecule, in the assay on OVCAR-3, the GI50 was 19.7 µM (inactive).
As for `CO[C@@H](c1ccccc1)[C@H](O)[C@@](O)(c1ccccc1)P(=O)(OC)OC`, the GI50 was > 100 µM (inactive) with DU-145; 29.8 µM (inactive) in the assay on HOP-92; > 100 µM (inactive) with UO-31; > 100 µM (inactive) in the assay on SK-MEL-28; 28.4 µM (inactive) in the assay with KM12; > 100 µM (inactive) in the assay on Hs-578T. In addition, the GI50 with BT-549, in the assay with HT-29, with NCI-H460, in the assay with CCRF-CEM, in the assay with NCI-H226 and in the assay with SR was > 100 µM (inactive) in each case. For the same molecule, the GI50 with PC-3 is > 100 µM (inactive); with CAKI-1 it was 34.7 µM (inactive); in the assay with RPMI-8226 it was > 100 µM (inactive); with UACC-257, > 100 µM (inactive); in the assay with A549, > 100 µM (inactive); with EKVX it was > 100 µM (inactive). In the assay on OVCAR-3, the GI50 is > 100 µM (inactive).
In the case of `COc1ccc(C2C(C#N)=C(S)N(C3OC(COC(C)=O)C(OC(C)=O)C(OC(C)=O)C3OC(C)=O)C(C)=C2C(C)=O)cc1` (stereo not drawn), the GI50 in the assay on DU-145 was > 100 µM (inactive); in the assay with HOP-92, 30 µM (inactive); in the assay with UO-31 it was 81.8 µM (inactive); in the assay with SK-MEL-28 it was > 100 µM (inactive); in the assay with KM12, > 100 µM (inactive); with Hs-578T, 59.3 µM (inactive). Also, the GI50 in the assay with HCC 2998 was > 100 µM (inactive); in the assay with BT-549, 52.4 µM (inactive); in the assay with HT-29, 71.3 µM (inactive); with NCI-H460 it was 83.4 µM (inactive); with CCRF-CEM, 30.3 µM (inactive); with SR it was 49.1 µM (inactive). Moreover, the GI50 with PC-3 was 31.3 µM (inactive); with CAKI-1, > 100 µM (inactive); in the assay with RPMI-8226 it was 73.1 µM (inactive); in the assay with UACC-257 it was > 100 µM (inactive); in the assay with A549, 70.6 µM (inactive); in the assay with OVCAR-3, 64.7 µM (inactive).
For `Cc1ccc(NC(=O)CC(=O)N2N=C(N3CCCCC3)CC2c2ccccc2)cc1` (stereo not drawn), the GI50 in the assay with DU-145, in the assay with HOP-92, with UO-31, in the assay on SK-MEL-28, with KM12 and in the assay with Hs-578T was > 100 µM (inactive) each time. Moreover, the GI50 in the assay on HCC 2998, with BT-549, in the assay on HT-29, with NCI-H460, in the assay with CCRF-CEM and in the assay on NCI-H226 was > 100 µM (inactive) in each case. Also, the GI50 in the assay with SR, in the assay with PC-3, in the assay with CAKI-1, in the assay with UACC-257, with A549 and in the assay with EKVX was > 100 µM (inactive) throughout. Also, the GI50 in the assay on OVCAR-3 is > 100 µM (inactive).
As for `CCN(CCCN(CC)C(=O)N[C@@H](Cc1ccccc1)C(=O)NC)C(=O)N[C@@H](Cc1ccccc1)C(=O)NC`, the GI50 with DU-145, with HOP-92, in the assay on UO-31, with SK-MEL-28, with KM12 and in the assay with Hs-578T was > 100 µM (inactive) each time. For the same molecule, the GI50 with HCC 2998, with BT-549, with HT-29, in the assay with NCI-H460, in the assay on NCI-H226 and with SR was > 100 µM (inactive) throughout. The GI50 with PC-3, in the assay on CAKI-1, in the assay on UACC-257, with A549, in the assay with EKVX and in the assay with OVCAR-3 was > 100 µM (inactive) throughout.
As to `Cc1cc(C)n(-c2nc3ccccc3c(=O)[nH]2)n1`, the GI50 is 5.89 µM (inactive) with DU-145; 21.7 µM (inactive) in the assay on HOP-92; 3.77 µM (inactive) in the assay with UO-31; 6.82 µM (inactive) in the assay with SK-MEL-28; 5.94 µM (inactive) with KM12; 24.8 µM (inactive) with Hs-578T. For the same molecule, the GI50 is 14.8 µM (inactive) in the assay on HCC 2998; 18.8 µM (inactive) with BT-549; 2.74 µM (inactive) with HT-29; 1.21 µM (inactive) in the assay with NCI-H460; 0.356 µM (active) in the assay on CCRF-CEM; 0.906 µM (active) in the assay on SR. Also, the GI50 in the assay with PC-3 was 5.96 µM (inactive); in the assay on CAKI-1, 3.02 µM (inactive); in the assay on RPMI-8226 it was 3.92 µM (inactive); in the assay with UACC-257 it was 33.6 µM (inactive); in the assay with A549, 2.95 µM (inactive); with EKVX it was 5.42 µM (inactive). For the same molecule, the GI50 in the assay with OVCAR-3 is 4.11 µM (inactive).
For the molecule `C=CCCC1CCCCNC1=S` (stereo not drawn), the GI50 in the assay with DU-145, in the assay with UO-31, in the assay on SK-MEL-28, in the assay with KM12, in the assay with Hs-578T and in the assay with HCC 2998 was > 10 µM (inactive) each time. For the same molecule, the GI50 in the assay with BT-549, in the assay on HT-29, in the assay on NCI-H460, in the assay on CCRF-CEM, in the assay on NCI-H226 and in the assay with SR was > 10 µM (inactive) in each case. The GI50 in the assay on PC-3, in the assay with CAKI-1, with RPMI-8226, in the assay with UACC-257, in the assay with A549 and in the assay with EKVX was > 10 µM (inactive) throughout. Besides, the GI50 with OVCAR-3 is > 10 µM (inactive).
Turning to `N#CC(=N)c1ncn(-c2ccc(N)cc2)c1N`, the GI50 in the assay on DU-145, in the assay with UO-31, with SK-MEL-28, with KM12, in the assay with Hs-578T and in the assay on HCC 2998 was > 100 µM (inactive) in each case. In addition, the GI50 in the assay on BT-549, in the assay on HT-29, in the assay on NCI-H460, with CCRF-CEM, with NCI-H226 and in the assay on SR was > 100 µM (inactive) each time. For the same molecule, the GI50 in the assay on PC-3, in the assay on CAKI-1, in the assay on RPMI-8226, in the assay with UACC-257, in the assay on A549 and in the assay on EKVX was > 100 µM (inactive) in each case. For the same molecule, the GI50 with OVCAR-3 was > 100 µM (inactive).
For the molecule `COC(=O)c1cc(-c2c[nH]cc2C(=O)OCc2ccccc2)cn1S(=O)(=O)c1ccc(C)cc1`, the GI50 in the assay with DU-145 is > 100 µM (inactive); in the assay on UO-31, > 100 µM (inactive); in the assay on KM12 it was > 100 µM (inactive); with Hs-578T it was > 100 µM (inactive); in the assay with HCC 2998, > 100 µM (inactive); in the assay with BT-549 it was 71.4 µM (inactive). Further, the GI50 in the assay on HT-29 is > 100 µM (inactive); with NCI-H460, 57.3 µM (inactive); with CCRF-CEM, > 100 µM (inactive); with SR, > 100 µM (inactive); with PC-3 it was 36.7 µM (inactive); in the assay on CAKI-1 it was > 100 µM (inactive). Also, the GI50 with UACC-257 is 7.93 µM (inactive); in the assay with A549, > 100 µM (inactive); with EKVX, 8.89 µM (inactive); in the assay on OVCAR-3 it was > 100 µM (inactive).
